Laboratory results: the supplement of paper PMC6045584
± gives the standard deviation of the averaged measurements.

What was measured:
[1] = compound: CCN(CC)CCNC(=O)c1c(C)[nH]c(/C=C2\C(=O)Nc3ccc(F)cc32)c1C [SUNITINIB]; experiment: surviving fraction relative to DMSO-only wells; higher = less growth inhibition; details: exposure time: 5 days
Outline: (§1)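 A line counted only if its three screens reached replicate Pearson r >0.7 and median Z' >0.3. Tumour cells in log phase were seeded at 250–500 per well in 384-well plates and, after 24 hours, kept in continuous contact with inhibitors at 0.5, 1, 5, 10, 50, 100, 500 and 1000 nM for five days. Surviving fraction was taken from CellTiter-Glo luminescence relative to the median of DMSO-only wells.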

[2] = compound: C#Cc1cccc(Nc2ncnc3cc(OCCOC)c(OCCOC)cc23)c1 [ERLOTINIB]; experiment: as above; details: exposure time: 5 days
Outline: as §1

| Test System | surviving fraction ([1]; 0.5 nM) | surviving fraction ([1]; 5 nM) | surviving fraction ([1]; 50 nM) | surviving fraction ([1]; 100 nM) | surviving fraction ([1]; 500 nM) | surviving fraction ([1]; 1000 nM) | surviving fraction ([2]; 5 nM) | surviving fraction ([2]; 10 nM) | surviving fraction ([2]; 50 nM) | surviving fraction ([2]; 100 nM) | surviving fraction ([2]; 500 nM) | surviving fraction ([2]; 1000 nM) | surviving fraction ([1]; 1 nM) | surviving fraction ([1]; 10 nM) |
| --- | --- | --- | --- | --- | --- | --- | --- | --- | --- | --- | --- | --- | --- | --- |
| C33A CERVIX | 1.1 ± 0.13 | 1.18 ± 0.12 | 1.12 ± 0.049 | 1.22 ± 0.1 | 0.647 ± 0.081 | 0.339 ± 0.019 | 1.06 ± 0.03 | 1.14 ± 0.019 | 1.06 ± 0.077 | 1.08 ± 0.029 | 0.819 ± 0.052 | 0.655 ± 0.031 |  |  |
| CAL72 BONE | 0.977 ± 0.016 |  |  | 1.058 ± 0.0023 | 0.92 ± 0.0072 | 0.663 ± 0.044 | 1.05 ± 0.1 |  |  | 1.1 ± 0.083 | 1.06 ± 0.084 | 1.07 ± 0.058 | 0.995 ± 0.028 |  |
| G292 BONE | 0.903 ± 0.05 | 0.938 ± 0.048 | 0.909 ± 0.032 | 0.887 ± 0.061 | 0.553 ± 0.014 | 0.306 ± 0.0087 | 1.03 ± 0.051 | 1.06 ± 0.018 | 1.05 ± 0.038 | 1.07 ± 0.033 | 0.979 ± 0.019 | 1.07 ± 0.092 | 0.947 ± 0.037 | 0.904 ± 0.027 |
| HUO3N1 BONE | 0.907 ± 0.082 | 0.8743 ± 0.0058 | 0.817 ± 0.035 | 0.801 ± 0.036 | 0.64 ± 0.0053 | 0.379 ± 0.016 |  | 1.117 ± 0.0084 | 1.13 ± 0.025 | 1.1 ± 0.018 | 1.02 ± 0.025 | 1.02 ± 0.038 | 0.88 ± 0.056 | 0.82 ± 0.034 |
| LNCAP PROSTATE | 1.12 ± 0.06 |  | 1.08 ± 0.093 | 1.14 ± 0.037 | 0.854 ± 0.11 | 0.45 ± 0.033 | 0.956 ± 0.032 | 0.892 ± 0.053 | 0.947 ± 0.1 | 1.02 ± 0.054 |  | 0.967 ± 0.028 | 1.19 ± 0.081 | 1.01 ± 0.12 |
| SCC003 HEADNECK | 0.834 ± 0.071 | 0.851 ± 0.036 | 0.97 ± 0.07 | 0.919 ± 0.017 | 0.495 ± 0.02 | 0.265 ± 0.034 | 1.13 ± 0.045 | 1.06 ± 0.11 | 0.997 ± 0.091 | 1.04 ± 0.051 | 0.702 ± 0.024 | 0.552 ± 0.038 | 0.807 ± 0.064 | 0.784 ± 0.058 |
